Read-outs that look alike come from different tables or passages of the source. No end group written: not given here.
Tests used:
Acinetobacter baumannii = conditions: Table 15, unit inferred
Description: (§1) MIC screening of the peptides against a panel of ATCC and clinical strains was performed using broth microdilution method.^1 Briefly, peptides stock solutions in DMSO (0.1/G TFA) were diluted into Mueller Hinton Broth (MHB), followed by two-fold serial dilution in a 96-well plate. Bacteria culture in mid-log phase was diluted into MHB to yield […] colony-forming units (CFU)/mL. Equal volume of the starting inoculum was added to the peptide samples, then incubated for 18-20 h (37° C., 120 rpm). OD600 of the samples was then measured using Tecan Infinite M200 (TECAN, Männedorf, Switzerland). MIC is defined as the lowest peptide concentration to achieve more than 90% reduction in OD600 relative to the drug-free control. The experiments were repeated three times. Colistin-resistant clinical isolates are a kind gift from Dr. Jeanette Koh (National University Hospital, Singapore). Multidrug-resistant clinical isolates are a kind gift from Dr. Lakshminarayanan Rajamani (Singapore Eye Research Institute, Singapore).
(§2) Kanamycin and ampicillin were used as antibacterial control agents. […] Then, sequential 2-fold serial dilutions of the mix were diluted in 50 μL MH broth and 50 μL cell cultures were added to wells. […] All assays were carried out in triplicate.

Escherichia coli = conditions: for MIC value: Table 15, unit inferred
Description: as §1, §2

Enterobacter cloacae = conditions: Table 15, unit inferred
Description: as §1, §2

Klebsiella pneumoniae = conditions: Table 15, unit inferred
Description: as §1, §2

Pseudomonas aeruginosa = assay type: cell-based; conditions: Table 15, unit inferred
From the text: The experiments were repeated three times.

[1] = system: Gram-positive and Gram-negative bacteria; conditions: panel of E. coli, K. pneumoniae, E. cloacae, A. baumannii, E. faecalis and S. aureus; preliminary screening
Description: as §1, §2

Q: “Xenorceptide B1 (GDRWLKWIKNH; listed as Photorhabdus laumondii)” was tested. Which MIC value (Acinetobacter baumannii; Acinetobacter baumanii ACβA1001) did it give?
A: Its MIC value is over 32 µg/mL.

Q: What about the MIC value (Acinetobacter baumannii; Acinetobacter baumanii ACβA1002) of the same compound?
A: The MIC value was over 32 µg/mL.

Q: What about the MIC value (Acinetobacter baumannii; Acinetobacter baumanii ACβA1003) of the same compound?
A: Its MIC value is over 32 µg/mL.

Q: What about the MIC value (Acinetobacter baumannii; Acinetobacter baumanii ACβA1004) of the same compound?
A: The MIC value was over 32 µg/mL.

Q: And the MIC value (Acinetobacter baumannii; Acinetobacter baumanii ATCC 19606)?
A: The MIC value was over 32 µg/mL.

Q: What about the MIC value (Escherichia coli; Escherichia coli M2) of the same compound?
A: The MIC value was over 32 µg/mL.

Q: And the MIC value (Escherichia coli; Escherichia coli M6)?
A: The MIC value was over 32 µg/mL.

Q: What about the MIC value (Escherichia coli; Escherichia coli M10) of the same compound?
A: The MIC value was over 32 µg/mL.

Q: And the MIC value (Escherichia coli; Escherichia coli M11)?
A: The MIC value was over 32 µg/mL.

Q: And the MIC value (Enterobacter cloacae; Enterobacter cloacae ATCC 13047)?
A: The MIC value was over 32 µg/mL.

Q: And the MIC value (Enterobacter cloacae; Enterobacter cloacae CRE1010)?
A: Its MIC value is over 32 µg/mL.

Q: What about the MIC value (Enterobacter cloacae; Enterobacter cloacae CRE1014) of the same compound?
A: Its MIC value is over 32 µg/mL.

Q: And the MIC value (Enterobacter cloacae; Enterobacter cloacae CRE1015)?
A: Its MIC value is over 32 µg/mL.

Q: What about the MIC value (Enterobacter cloacae; Enterobacter cloacae CRE1016) of the same compound?
A: The MIC value was over 32 µg/mL.

Q: And the MIC value (Enterobacter cloacae; Enterobacter cloacae CRE1017)?
A: The MIC value was over 32 µg/mL.

Q: What about the MIC value (Klebsiella pneumoniae; ATCC 25922, printed under Klebsiella pneumoniae) of the same compound?
A: Its MIC value is over 32 µg/mL.

Q: What about the MIC value (Klebsiella pneumoniae; CRE1006, Klebsiella pneumoniae) of the same compound?
A: Its MIC value is over 32 µg/mL.

Q: And the MIC value (Klebsiella pneumoniae; Klebsiella pneumoniae CRE 1007)?
A: Its MIC value is over 32 µg/mL.

Q: And the MIC value (Klebsiella pneumoniae; Klebsiella pneumoniae CRE1008)?
A: Its MIC value is over 32 µg/mL.

Q: And the MIC value (Klebsiella pneumoniae; Klebsiella pneumoniae CRE1011)?
A: The MIC value was over 32 µg/mL.

Q: What about the MIC value (Klebsiella pneumoniae; Klebsiella pneumoniae CRE1012) of the same compound?
A: Its MIC value is over 32 µg/mL.

Q: And the MIC value (Pseudomonas aeruginosa; Pseudomonas aeruginosa DM4150R)?
A: The MIC value was over 32 µg/mL.

Q: What about the MIC value (Pseudomonas aeruginosa; Pseudomonas aeruginosa DM23376) of the same compound?
A: The MIC value was over 32 µg/mL.

Q: What about the MIC value (Pseudomonas aeruginosa; Pseudomonas aeruginosa DR4877/07) of the same compound?
A: Its MIC value is over 32 µg/mL.

Q: What about the MIC value (Pseudomonas aeruginosa; Pseudomonas aeruginosa DR5790/07) of the same compound?
A: The MIC value was over 32 µg/mL.

Q: How did the “MIC (E. coli)” value (Escherichia coli; strain not stated, product produced and tested against E. coli) turn out when WVNAYARWTKRF [SEQ ID 26] was run?
A: The value was 8 µg/mL.

Q: Which antibacterial activity [1] does the source give for `C[C@H](NC(=O)[C@H](CC(N)=O)NC(=O)[C@H](C)NC(=O)[C@@H](N)Cc1ccccc1)C(=O)N[C@H](C(=O)N[C@H]1Cc2c[nH]c3cc(ccc23)C(CCCN)[C@@H](C(=O)N[C@@H](CO)C(=O)N[C@@H](Cc2ccccc2)C(=O)O)NC(=O)[C@H](CO)NC1=O)[C@@H](C)O` (stereo partly drawn) [Compound 31] here?
A: The antibacterial activity was “no activity”.

Q: How did the antibacterial activity [1] turn out when `CC(C)C[C@H](NC(=O)[C@H]1NC(=O)[C@H](Cc2ccccc2)NC(=O)[C@@H](NC(=O)[C@@H](NC(=O)[C@H](CCC(=O)O)NC(=O)[C@H](C)NC(=O)[C@@H](NC(=O)[C@H](CO)NC(=O)[C@H](C)N)[C@@H](C)O)[C@@H](C)O)Cc2c[nH]c3cc(ccc23)C1CCCN)C(=O)N[C@@H](CC(=O)O)C(=O)N[C@H]1Cc2c[nH]c3cc(ccc23)C(CCCN)[C@@H](C(=O)N[C@@H](CO)C(=O)N[C@@H](Cc2ccccc2)C(=O)O)NC(=O)[C@H](CCCCN)NC1=O` (stereo partly drawn) [Compound 21] was run?
A: The antibacterial activity was “no activity”.

Q: How did the antibacterial activity [1] turn out when `C[C@H](NC(=O)[C@H]1NC(=O)[C@H](C)NC(=O)[C@@H](N)Cc2ccc(cc2)C1C(N)=O)C(=O)N[C@H](C(=O)N[C@H]1Cc2c[nH]c3cc(ccc23)C(CCCN)[C@@H](C(=O)N[C@@H](CO)C(=O)N[C@@H](Cc2ccccc2)C(=O)O)NC(=O)[C@H](CO)NC1=O)[C@@H](C)O` (stereo partly drawn) [Compound 30] was run?
A: Its antibacterial activity is “no activity”.

Q: With `CC(C)[C@H](NC(=O)[C@H](Cc1c[nH]c2ccccc12)NC(=O)CNC(=O)[C@H](CCC(=O)O)NC(=O)CNC(=O)[C@@H](N)CCCNC(=N)N)C(=O)N[C@@H](CCCNC(=N)N)C(=O)N[C@@H](C)C(=O)N[C@@H](Cc1ccc(O)cc1)C(=O)N[C@H]1Cc2c[nH]c3cc(ccc23)C(CCCN)[C@@H](C(=O)N[C@@H](CCCNC(=N)N)C(=O)N[C@@H](Cc2ccccc2)C(=O)O)NC(=O)[C@H](C)NC1=O` (stereo partly drawn) [Compound 25] as the compound, how does the antibacterial activity [1] read?
A: The antibacterial activity was “also active against these test bacteria, but weaker than 24”.

From patent US20260049104A1, “PEPTIDES WITH ANTIMICROBIAL PROPERTIES” (priority 2022, published 2026)
